Experimental findings from PubChem BioAssay (NCI) are described below.

Test systems include NCI/ADR-RES ovarian; RXF 393 renal; SNB-75 CNS; EKVX NSCLC; SF-268 CNS; UACC-62 melanoma; A498 renal; OVCAR-5 ovarian; HCT-116 colon; SNB-19 CNS.
Experiment in all cases: inhibition of tumour cell growth, NCI panel, 48 h

Each structure is given as a SMILES string.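 Interpolation was linear, between the two tested concentrations surrounding the appropriate level; five concentrations were tested over 48 hours in 96-well plates. Here, GI50 denotes the concentration required for 50% inhibition of growth. TGI denotes the concentration required for complete inhibition of growth.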

`CCCC(CCC)NCC(O)c1cc(-c2ccc(C(F)(F)F)cc2)nc(C(F)(F)F)c1` (stereo not drawn): the GI50 is 1.63 µM in the test with NCI/ADR-RES ovarian; 1.47 µM with RXF 393 renal; 1.72 µM with SNB-75 CNS; 2.01 µM in the test with EKVX NSCLC; 1.86 µM with SF-268 CNS; 1.72 µM in the test on UACC-62 melanoma. Further, the GI50 with A498 renal is 1.35 µM; in the test with OVCAR-5 ovarian, 1.55 µM; in the test with HCT-116 colon, 1.66 µM; in the test on SNB-19 CNS, 1.79 µM. The TGI in the test on NCI/ADR-RES ovarian was 3.25 µM; in the test with RXF 393 renal, 2.82 µM; in the test on SNB-75 CNS, 3.3 µM; with EKVX NSCLC it was 3.81 µM; in the test with SF-268 CNS, 3.38 µM; in the test with UACC-62 melanoma, 3.25 µM. For the same compound, the TGI in the test with A498 renal came to 2.67 µM; with OVCAR-5 ovarian, 2.95 µM; with HCT-116 colon, 3.24 µM; in the test on SNB-19 CNS it was 3.42 µM.
As for `Cc1ccc(NC(=O)c2cccc(C(C)(C)C#N)c2)cc1Nc1ccc2ncn(C)c(=O)c2c1`, the GI50 was 4.12 µM in the test with NCI/ADR-RES ovarian; 6.87 µM in the test with RXF 393 renal; 12.7 µM in the test with SNB-75 CNS; 3.74 µM in the test with EKVX NSCLC; 6.01 µM with SF-268 CNS; 0.0275 µM in the test on UACC-62 melanoma. The GI50 in the test on A498 renal was 0.742 µM; with OVCAR-5 ovarian, 0.123 µM; in the test with HCT-116 colon it was 0.1 µM; with SNB-19 CNS it was 5.48 µM. In addition, the TGI in the test on NCI/ADR-RES ovarian is over 100 µM; in the test on RXF 393 renal, over 73.4 µM; in the test on SNB-75 CNS, over 100 µM; in the test with EKVX NSCLC it was over 100 µM; with SF-268 CNS, over 100 µM; in the test with A498 renal it was 4.08 µM. For the same compound, the TGI in the test on OVCAR-5 ovarian, in the test on HCT-116 colon and with SNB-19 CNS was over 100 µM throughout.
With `O=C(Nc1n[nH]c2cc(-c3ccccc3)ccc12)C1CC1`, the GI50 in the test with NCI/ADR-RES ovarian was 1.79 µM; with RXF 393 renal, 7.91 µM; with SNB-75 CNS, over 20.9 µM; with EKVX NSCLC it was 24.4 µM; in the test with SF-268 CNS it was over 21.2 µM; in the test on UACC-62 melanoma, over 25 µM. Besides, the GI50 with A498 renal is 16.1 µM; with OVCAR-5 ovarian, over 25 µM; in the test on HCT-116 colon, 6.56 µM; with SNB-19 CNS it was over 19.8 µM. Besides, the TGI in the test with NCI/ADR-RES ovarian, with RXF 393 renal, with SNB-75 CNS, with EKVX NSCLC, in the test with SF-268 CNS and in the test with UACC-62 melanoma was over 25 µM throughout. Moreover, the TGI in the test on A498 renal, in the test with OVCAR-5 ovarian, in the test on HCT-116 colon and in the test on SNB-19 CNS was over 25 µM in each case.
`COc1ccc(C(=O)c2cc(C)c(OC)c(C)c2)c(OC)c1O`: the GI50 with NCI/ADR-RES ovarian was 0.0257 µM; in the test with RXF 393 renal, 0.163 µM; in the test with SNB-75 CNS, 0.026 µM; in the test with EKVX NSCLC, 0.238 µM; in the test on SF-268 CNS, 0.207 µM; in the test with UACC-62 melanoma, 0.638 µM. Further, the GI50 with A498 renal is 1.84 µM; in the test on OVCAR-5 ovarian, 4.9 µM; with HCT-116 colon it was 0.103 µM; in the test on SNB-19 CNS it was 0.0332 µM. The TGI in the test on RXF 393 renal is over 100 µM; in the test with SNB-75 CNS, over 100 µM; in the test with EKVX NSCLC it was over 100 µM; in the test with SF-268 CNS it was over 100 µM; with UACC-62 melanoma, over 100 µM; in the test on A498 renal, 6.03 µM. For the same compound, the TGI in the test with OVCAR-5 ovarian, in the test with HCT-116 colon and with SNB-19 CNS was over 100 µM each time.
`COc1ccc(-c2[nH]c3ccc(OC)cc3c2/C=C(\C#N)S(=O)(=O)c2ccccc2)cc1`: the GI50 in the test with NCI/ADR-RES ovarian is 0.479 µM; in the test on RXF 393 renal it was over 100 µM; with SNB-75 CNS, 0.561 µM; in the test with EKVX NSCLC, 3.21 µM; with SF-268 CNS, 1.56 µM; with UACC-62 melanoma it was 0.644 µM. Besides, the GI50 in the test on A498 renal is 0.966 µM; with OVCAR-5 ovarian it was 3.85 µM; in the test on HCT-116 colon it was 0.53 µM; in the test with SNB-19 CNS, 3.14 µM. Moreover, the TGI in the test on NCI/ADR-RES ovarian was 9.22 µM; in the test on RXF 393 renal it was over 100 µM; in the test with SNB-75 CNS, 45.5 µM; in the test on EKVX NSCLC it was over 100 µM; in the test with SF-268 CNS, over 100 µM; in the test with UACC-62 melanoma, over 61.1 µM. Also, the TGI in the test with A498 renal is 8.18 µM; in the test on OVCAR-5 ovarian it was over 100 µM; with HCT-116 colon, over 100 µM; in the test on SNB-19 CNS, over 100 µM.
Turning to `CCCCC(CC)COC(=O)C[N+](C)(C)CCOC(c1ccccc1)c1ccccc1` (stereo not drawn), the GI50 with NCI/ADR-RES ovarian was 23.5 µM; in the test with RXF 393 renal, 1.48 µM; in the test on SNB-75 CNS it was 2.13 µM; in the test with EKVX NSCLC, 3.76 µM; in the test with SF-268 CNS, 2.01 µM; with UACC-62 melanoma, 1.67 µM. For the same compound, the GI50 is 3.12 µM in the test on A498 renal, 4.11 µM in the test with OVCAR-5 ovarian, 1.8 µM in the test with HCT-116 colon and 1.85 µM in the test on SNB-19 CNS. Further, the TGI in the test with NCI/ADR-RES ovarian stood at 70.3 µM; in the test on RXF 393 renal it was 3.34 µM; with SNB-75 CNS, 5.27 µM; in the test with EKVX NSCLC it was 15.9 µM; in the test on SF-268 CNS, 4.77 µM; in the test with UACC-62 melanoma it was 3.16 µM. In addition, the TGI was 15.2 µM in the test on A498 renal, 15.8 µM in the test with OVCAR-5 ovarian, 3.32 µM in the test on HCT-116 colon and 3.76 µM with SNB-19 CNS.
As for `CN1CCN(CCCNc2nc3ccc(Oc4ccc(NC(=O)Nc5cc(C(F)(F)F)ccc5F)cc4)cc3[nH]2)CC1`, the GI50 in the test on NCI/ADR-RES ovarian was over 25 µM; with RXF 393 renal it was 4.07 µM; in the test with SNB-75 CNS it was 5.14 µM; with EKVX NSCLC, 6.69 µM; with SF-268 CNS it was 4.17 µM; with UACC-62 melanoma it was 4.1 µM. Besides, the GI50 in the test on A498 renal was 2.93 µM; in the test on OVCAR-5 ovarian, 6.75 µM; in the test on HCT-116 colon it was 4.28 µM; in the test with SNB-19 CNS, 3.99 µM. In addition, the TGI in the test on NCI/ADR-RES ovarian was over 25 µM; with RXF 393 renal it was 9.17 µM; in the test with SNB-75 CNS it was 13.2 µM; with EKVX NSCLC, over 25 µM; with SF-268 CNS it was 8.04 µM; with UACC-62 melanoma, 7.66 µM. The TGI is over 18.9 µM in the test on A498 renal, over 20.7 µM with OVCAR-5 ovarian, 7.99 µM in the test on HCT-116 colon and 7.42 µM in the test with SNB-19 CNS.
`COc1ccc(C(=O)c2cc(OC)c(OC)c(OC)c2)cc1/C=C/C(=O)c1ccc(F)cc1`: the GI50 was 3.69 µM in the test on NCI/ADR-RES ovarian; 7.29 µM in the test with RXF 393 renal; 3.18 µM in the test with SNB-75 CNS; 11.1 µM in the test on EKVX NSCLC; 3.86 µM in the test on SF-268 CNS; 2.01 µM with UACC-62 melanoma. In addition, the GI50 was 14 µM with A498 renal, 2.67 µM in the test with OVCAR-5 ovarian, 1.75 µM in the test with HCT-116 colon and 2.26 µM with SNB-19 CNS. The TGI with NCI/ADR-RES ovarian came out at 73.2 µM; in the test on RXF 393 renal, 23.3 µM; in the test on SNB-75 CNS, 20.7 µM; in the test on EKVX NSCLC it was 31.4 µM; in the test with SF-268 CNS it was 16.1 µM; in the test on UACC-62 melanoma, 5.52 µM. In addition, the TGI with A498 renal is 29.9 µM; in the test with OVCAR-5 ovarian it was 11.5 µM; in the test on HCT-116 colon, 3.57 µM; in the test on SNB-19 CNS, 5.96 µM.
`CCOC(=O)C1CCN(S(=O)(=O)/N=C2/NC(=O)NC2=C(Cl)Cl)CC1`: the GI50 in the test with NCI/ADR-RES ovarian was 4.36 µM; in the test on RXF 393 renal it was 1.61 µM; in the test on SNB-75 CNS it was 2.86 µM; in the test on EKVX NSCLC, 1.99 µM; in the test with SF-268 CNS, 1.93 µM; in the test with UACC-62 melanoma it was 1.71 µM. Also, the GI50 with A498 renal was 2.65 µM; in the test on OVCAR-5 ovarian, 3.6 µM; in the test with HCT-116 colon, 0.736 µM; in the test on SNB-19 CNS it was 1.84 µM. Besides, the TGI in the test on NCI/ADR-RES ovarian was 41.4 µM; in the test with RXF 393 renal, 3.06 µM; in the test on SNB-75 CNS, 14.1 µM; with EKVX NSCLC it was 4.79 µM; in the test with SF-268 CNS, 7.43 µM; in the test with UACC-62 melanoma, 3.27 µM. Further, the TGI came to 12.1 µM in the test with A498 renal, 14.7 µM in the test on OVCAR-5 ovarian, 2.48 µM in the test with HCT-116 colon and 5.11 µM with SNB-19 CNS.
As for `CC/C=C\C[C@H](O)C/C=C1/C(=O)C=C[C@@H]1C/C=C\CCCC(=O)OC`, the GI50 was 2.61 µM in the test with NCI/ADR-RES ovarian; 1.91 µM with RXF 393 renal; 11.7 µM with SNB-75 CNS; 3.11 µM in the test with EKVX NSCLC; 2.56 µM with SF-268 CNS; 1.05 µM in the test on UACC-62 melanoma. Also, the GI50 in the test on A498 renal is 4.91 µM; with OVCAR-5 ovarian, 2.7 µM; with HCT-116 colon, 0.572 µM; in the test with SNB-19 CNS, 2.88 µM. Also, the TGI was found to be 10.8 µM with NCI/ADR-RES ovarian; 3.58 µM with RXF 393 renal; 26 µM in the test on SNB-75 CNS; 12.4 µM with EKVX NSCLC; 11.8 µM in the test on SF-268 CNS; 3.49 µM in the test with UACC-62 melanoma. In addition, the TGI in the test on A498 renal worked out at 14.4 µM; in the test with OVCAR-5 ovarian it was 6.69 µM; in the test with HCT-116 colon it was 2.92 µM; in the test on SNB-19 CNS it was 14 µM.
As for `O=C1c2cccnc2-c2nc(-c3ccc(Cl)cc3)cc3c2c1nc1ccccc13`, the GI50 with NCI/ADR-RES ovarian was 55.2 µM; in the test on RXF 393 renal, 30.8 µM; in the test with SNB-75 CNS, 57.9 µM; in the test with EKVX NSCLC, over 100 µM; in the test on SF-268 CNS, 71.2 µM; in the test with UACC-62 melanoma, 76 µM. Moreover, the GI50 in the test with A498 renal was 33.5 µM; with OVCAR-5 ovarian, over 100 µM; in the test on HCT-116 colon, 28.4 µM; in the test on SNB-19 CNS, over 100 µM. Moreover, the TGI with NCI/ADR-RES ovarian, with RXF 393 renal, with SNB-75 CNS, in the test on EKVX NSCLC, in the test with SF-268 CNS and in the test with UACC-62 melanoma was over 100 µM throughout. Further, the TGI in the test on A498 renal, with OVCAR-5 ovarian, with HCT-116 colon and in the test on SNB-19 CNS was over 100 µM each time.
